These are literature values, as cited in patent US20260306413A1, “COLONIC PURGATIVE TABLET AND COLONIC PURGATIVE COMPRISING SAME” (PHARMBIO KOREA CO., LTD., priority 2023, published 2026).

With `O=P(O)(O)O` [oral sodium phosphate, sodium phosphate], the complications result (oral) is “acute phosphate nephropathy”.

Turning to Phosphate, where the note is “compared to PEG”, the colon cleansing effect entry is listed as “colon cleansing effect in smaller doses compared to PEG”. The side effects result (frequency vs PEG) is “side effects such as abdominal inflation, pain, and dizziness at a similar frequency to PEG”.
